Measurements published in patent US8546321B2, “IL-4-derived peptides for modulation of the chronic inflammatory response and treatment of autoimmune diseases” (Kobenhavns Universitet, priority 2008, dated 2013).
Where two headings read alike, the source gives them in different places.

What was measured:
[1] = subcutaneous administration, cited from earlier work
[2] = repeated daily dosing; cited from earlier work
[3] = tested on: malignancies; details: in this dose and schedule (Whitehead et al., 1998); cited from earlier work
[4] = tested on: psoriasis; details: correcting imbalances in immune functions (Martin 2003); cited from earlier work
[5] = tested on: cerebellar granular neurons (CGN); experiment: Neurite outgrowth assay in cultures of cerebellar granule neurons; assay type: cell-based, Wistar rats; details: P7 CGN, peptides added after plating, 24 h
Experimental: Cerebellar granular neurons (CGN) were prepared from 3 or 7 postnatal (P) day Wistar rats (Charles River, Sulzfeld, Germany or Taconic, Ejby, Denmark). Cerebella were cleared of meninges and blood vessels, roughly homogenized by chopping, and trypsinized with trypsin from Sigma-Aldrich (Brøndby, Denmark). The neurons were washed in the presence of DNAse 1 and soybean trypsin inhibitor (Sigma-Aldrich), and cellular debris was pelleted by centrifugation before plating. For single-cell culture experiments, P7 CGNs were plated at a density of 10,000 cells/well onto uncoated eight-well Lab-Tek chamber slides (NUNC, Slangerup, Denmark) in Neurobasal-A medium supplemented with 0.4% (w/v) BSA. Peptides at various concentrations were added to the medium immediately after plating, and cells were maintained at 37° C. and 5% CO2 for 24 h. Cultures then were fixed, blocked and incubated with polyclonal rabbit antibody against rat GAP-43 (Chemicon, Temecula, Calif., USA) followed by incubation with secondary Alexa Fluor488 goat anti-rabbit antibody (Molecular Probes, Eugene, Oreg., USA) as previously described (Neiiendam et al., 2004). The immunostained cultures were all recorded by computer-assisted fluorescence microscopy using a Nikon Diaphot inverted microscope (Nikon, Japan) equipped with a Nikon Plane 20× objective. Images were captured with a charge-coupled device video camera (Grundig Electronics, Nurnberg, Germany) using the software package Prima developed at the Protein Laboratory (University of Copenhagen, Copenhagen, Denmark). The length of neuronal processes per cell was estimated using the software package Process Length developed at the Protein Laboratory (Ronn et al. 2000). For estimation of neurite outgrowth, at least 200±20 cells were processed for each group in each individual experiment.

Question: What does the source list for “rhulL-4: Escherichia coli-derived recombinant human interleukin-4”?
Answer: safety and tolerability ([1]; as high as 10 μg/kg administered 3 times/week): safe and well tolerated; safety and tolerability ([1]; doses as high as 5 μg/kg/day): safe and well tolerated; adverse effects [2]: a number of adverse effects; antitumor activity [3]: only low antitumor activity; benefit in patients with psoriasis [4]: beneficial

Question: With “AQFHRHKQLIRFLKRA (Variant of fragment of interleukin-4) [SEQ ID NO: 1]” as the substance, how does the “neuritogenic response from primary neurons” value (from here on “neuritogenic response”) [5] read?
Answer: induce a neuritogenic response

Question: With “ARFLKRLDRNLWGG (Variant of fragment of interleukin-4) [SEQ ID NO: 3]” as the substance, how does the “neuritogenic response” value [5] read?
Answer: induce a neuritogenic response

Question: With “AITLQEIIKTLNSA (Variant of fragment of interleukin-4) [SEQ ID NO: 2]” as the substance, how does the “neuritogenic response” value [5] read?
Answer: induce a neuritogenic response

Question: Which “neuritogenic response” value [5] does the source give for “AERLKTIMREKYSKS (Variant of fragment of interleukin-4) [SEQ ID NO: 4]” here?
Answer: induce a neuritogenic response
